# Target: T1, human GPR119 (Homo sapiens, UniProt Q8TDV5)
# T1 construct: expressed in transfected cells; host or cells: HEK293 (transient transfection, Lipofectamine 2000)
# T1 sequence (Q8TDV5 1-335): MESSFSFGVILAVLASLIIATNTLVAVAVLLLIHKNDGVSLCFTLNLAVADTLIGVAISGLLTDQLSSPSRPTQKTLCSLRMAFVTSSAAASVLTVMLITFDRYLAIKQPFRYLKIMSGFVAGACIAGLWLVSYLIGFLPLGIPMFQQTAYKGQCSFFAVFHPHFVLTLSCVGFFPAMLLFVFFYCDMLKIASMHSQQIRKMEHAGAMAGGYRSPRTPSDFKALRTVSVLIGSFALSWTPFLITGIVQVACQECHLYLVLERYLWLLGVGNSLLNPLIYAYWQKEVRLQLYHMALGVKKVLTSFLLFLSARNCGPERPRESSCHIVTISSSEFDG
# Assay: In vitro cyclic AMP assay (Cisbio HTRF) in HEK293 cells transfected with human GPR119
# Assay type: cell-based
# Conditions: cAMP; for activation at 10 µM: 1 h, % Induction @ 10 μM; for EC50: Emax varies between 65 to 80%
# Protocol: A. In Vitro Cyclic AMP Assay:
# cAMP measurements were done using a Cisbio dynamic 2 HTRF kit (Cisbio, Bedford, Mass.) according to the manufacturer's protocol. Briefly, HEK293 cells (0.2×10^6/well) were plated in a 24 well plate and incubated overnight at 37° C. Cells were transfected with either empty vector DNA or human GPR119 expression plasmid DNA using Lipofectamine 2000 (Invitrogen). After 24 h, transfected cells were harvested, counted and plated at 1000 cells/5 ul in a black 384 welled small volume plate. Cells were treated with desired concentrations of compounds and incubated for 60 min at room temperature. Lysis buffer containing cAMP-d2 and cryptate conjugate were added and incubated for 1 h. HRTF ratio was measured on a microplate reader (BMG Labtech., Germany) at an excitation wavelength of 337 nm and emission wavelengths of 665 and 620 nm with an integration time of 400 μsec. Data were analyzed using Graphpad Prism (Graphpad software; San Diego Calif.) for EC50 determination.
# The results are as given in Table I as % Induction@ 10 μM, Table II as % Induction@ 10 μM and EC 50 in nM
activation at 10 µM (Table II),activation at 10 µM (Table I),EC50 (Table I),Compound,other results
72.7%,,,"CC(C)(C)OC(=O)N1CCC(c2ccc3sc(-c4ccc(S(C)(=O)=O)cc4F)nc3c2)CC1 [EXAMPLE-68, Tert-butyl 4-{2-[2-fluoro-4-(methylsulfonyl)phenyl]benzo[d]thiazol-5-yl}piperidine-1-carboxylate]",
,63.9%,50 to 100 nM,"CC(C)C(=O)N1CCC(c2nc3cc(-c4ccc(-n5cnnn5)cc4F)ccc3o2)CC1 [EXAMPLE-32, 1-{4-[5-(2-fluoro-4-(1H-tetrazol-1-yl)phenyl)benzo[d]oxazol-2-yl]piperidin-1-yl}-2-methylpropan-1-one]",
71.8%,,,"CCOC(=O)N1CCC(c2ccc3oc(-c4ccc(S(C)(=O)=O)cc4F)nc3c2)CC1 [EXAMPLE-69, Ethyl 4-{2-[2-fluoro-4-(methylsulfonyl)phenyl]benzo[d]oxazol-5-yl}piperidine-1-carboxylate]",EC50 (Table II): 25 to 50 nM
,35.8%,,"CC(C)(C)OC(=O)N1CCC(c2nc3cc(-c4ccc(S(C)(=O)=O)cc4F)ccc3[nH]2)CC1 [EXAMPLE-2, Tert-butyl 4-{5-[2-fluoro-4-(methylsulfonyl)phenyl]-1H-benzo[d]imidazol-2-yl}piperidine-1-carboxylate]",
,59.2%,500 to 1000 nM,"CC(C)(C)OC(=O)N1CCC(c2nc3cc(-c4ccc(S(C)(=O)=O)c(F)c4)ccc3o2)CC1 [EXAMPLE-10, Tert-butyl 4-{5-[3-fluoro-4-(methylsulfonyl)phenyl]benzo[d]oxazol-2-yl}piperidine-1-carboxylate]",
38.5%,,,"CC(C)(C)OC(=O)N1CC=C(c2ccc3[nH]c(-c4ccc(S(C)(=O)=O)cc4F)nc3c2)CC1 [EXAMPLE-56, Tert-butyl 4-{2-[2-fluoro-4-(methylsulfonyl)phenyl]-1H-benzo[d]imidazol-5-yl}-5,6-dihydropyridine-1(2H)-carboxylate]",
14.7%,,,"CS(=O)(=O)c1ccc(-c2nc3cc(C4CCN(C(=O)OCc5ccccc5)CC4)ccc3o2)c(F)c1 [EXAMPLE-74, Benzyl 4-{2-[2-fluoro-4-(methylsulfonyl)phenyl]benzo[d]oxazol-5-yl}piperidine-1-carboxylate]",
,36.4%,,"CC(C)OC(=O)N1CCC(c2nc3cc(-c4ccc(-n5cnnn5)c(F)c4)ccc3o2)CC1 [EXAMPLE-18, Isopropyl 4-{5-[3-fluoro-4-(1H-tetrazol-1-yl)phenyl]benzo[d]oxazol-2-yl}piperidine-1-carboxylate]",
,45.4%,,"CC(C)OC(=O)N1CCC(c2nc3cc(-c4ccc(C=O)cc4)ccc3o2)CC1 [EXAMPLE-28, Isopropyl 4-[5-(4-formylphenyl)benzo[d]oxazol-2-yl]piperidine-1-carboxylate]",
,59%,50 to 100 nM,"CC(C)(C)OC(=O)N1CCC(c2nc3cc(-c4ccc(C(N)=O)c(F)c4)ccc3o2)CC1 [EXAMPLE-21, Tert-butyl 4-[5-(4-carbamoyl-3-fluorophenyl)benzo[d]oxazol-2-yl]piperidine-1-carboxylate]",
,46.5%,,"CC(C)OC(=O)N1CCC(c2nc3cc(-c4ccc(C(F)(F)F)cc4)ccc3o2)CC1 [EXAMPLE-27, Isopropyl 4-{5-[4-(trifluoromethyl)phenyl]benzo[d]oxazol-2-yl}piperidine-1-carboxylate]",
,41.5%,,"CC(C)(C)OC(=O)N1CCC(c2nc3cc(-c4ccc(C#N)c(F)c4)ccc3o2)CC1 [EXAMPLE-17, Tert-butyl 4-[5-(4-cyano-3-fluorophenyl)benzo[d]oxazol-2-yl]piperidine-1-carboxylate]",
,73.9%,25 to 50 nM,"CC(C)(C)OC(=O)N1CCC(c2nc3cc(-c4ccc(C(N)=O)c(Cl)c4)ccc3o2)CC1 [EXAMPLE-20, Tert-butyl 4-[5-(4-carbamoyl-3-chlorophenyl)benzo[d]oxazol-2-yl]piperidine-1-carboxylate]",
32.1%,,,"CC(C)(C)OC(=O)N1CC=C(c2ccc3nc(-c4ccc(S(C)(=O)=O)cc4F)sc3c2)CC1 [EXAMPLE-65, Tert-butyl 4-{2-[2-fluoro-4-(methylsulfonyl)phenyl]benzo[d]thiazol-6-yl}-5,6-dihydropyridine-1(2H)-carboxylate]",
,68.6%,25 to 50 nM,"CC(C)OC(=O)N1CCC(c2nc3cc(-c4ccc(-n5cnnn5)cc4F)ccc3o2)CC1 [EXAMPLE-14, Isopropyl 4-{5-[2-fluoro-4-(1H-tetrazol-1-yl)phenyl]benzo[d]oxazol-2-yl}piperidine-1-carboxylate]",
,62.6%,50 to 100 nM,"CC(C)OC(=O)N1CCC(c2nc3cc(-c4ccc(S(C)(=O)=O)cc4F)ccc3o2)CC1 [EXAMPLE-7, Isopropyl 4-{5-[2-fluoro-4-(methylsulfonyl)phenyl]benzo[d]oxazol-2-yl}piperidine-1-carboxylate]",
,68.2%,100 to 500 nM,"CC(C)(C)OC(=O)N1CCC(c2nc3cc(-c4ccc(C(F)(F)F)cc4)ccc3o2)CC1 [EXAMPLE-13, Tert-butyl 4-{5-[4-(trifluoromethyl)phenyl]benzo[d]oxazol-2-yl}piperidine-1-carboxylate]",
,55.4%,,"CCc1cnc(N2CCC(c3nc4cc(-c5ccc(S(C)(=O)=O)cc5F)ccc4[nH]3)CC2)nc1 [EXAMPLE-1, 2-[1-(5-Ethylpyrimidin-2-yl)piperidin-4-yl]-5-[2-fluoro-4-(methylsulfonyl)phenyl]-1H-benzo[d]imidazole]",
,74%,,"Fc1cc(-n2cnnn2)ccc1-c1ccc2oc(C3CCNCC3)nc2c1 [EXAMPLE-26, 5-[2-fluoro-4-(1H-tetrazol-1-yl)phenyl]-2-(piperidin-4-yl)benzo[d]oxazole]",
29.8%,,,"CS(=O)(=O)c1ccc(-c2nc3cc(C4CCNCC4)ccc3o2)c(F)c1 [EXAMPLE-61, 2-[2-fluoro-4-(methylsulfonyl)phenyl]-5-(piperidin-4-yl)benzo[d]oxazole 2,2,2-trifluoroacetate]",
,43.7%,,"CCc1cnc(N2CCC(c3nc4cc(-c5ccc(-n6cnnn6)cc5F)ccc4o3)CC2)nc1 [EXAMPLE-16, 2-[1-(5-ethylpyrimidin-2-yl)piperidin-4-yl]-5-[2-fluoro-4-(1H-tetrazol-1-yl)phenyl]benzo[d]oxazole]",
,80.4%,≤ 25 nM,"CC(C)OC(=O)N1CCC(c2nc3cc(-c4ccc(C(N)=O)c(F)c4)ccc3o2)CC1 [EXAMPLE-31, Isopropyl 4-[5-(4-carbamoyl-3-fluorohenyl)benzo[d]oxazol-2-yl]piperidine-1-carboxylate]",
26.4%,,,"CS(=O)(=O)c1ccc(-c2nc3cc(C4CCN(S(=O)(=O)CCCO)CC4)ccc3o2)c(F)c1 [EXAMPLE-80, 3-{4-[2-(2-fluoro-4-(methylsulfonyl)phenyl)benzo[d]oxazol-5-yl]piperidin-1-ylsulfonyl}propan-1-ol]",
,41%,,"Cn1c(C2CCN(C(=O)OC(C)(C)C)CC2)nc2cc(-c3ccc(S(C)(=O)=O)cc3F)ccc21 [EXAMPLE-5, Tert-butyl 4-{5-[2-fluoro-4-(methylsulfonyl)phenyl]-1-methyl-1H-benzo[d]imidazol-2-yl}piperidine-1-carboxylate]",
56.6%,,,"CC(C)(C)OC(=O)N1CCC(c2cc(F)c3oc(-c4ccc(S(C)(=O)=O)cc4F)nc3c2)CC1 [EXAMPLE-63, Tert-butyl 4-{7-fluoro-2-[2-fluoro-4-(methylsulfonyl)phenyl]benzo[d]oxazol-5-yl}piperidine-1-carboxylate]",
